≈ marks a conversion by molar mass, not a printed value. Some results are limits rather than exact numbers.

Assay [1] addresses T1, Adenosylhomocysteinase (Homo sapiens, UniProt P23526).
Target sequence in this assay (P23526 2-432 limits assumed): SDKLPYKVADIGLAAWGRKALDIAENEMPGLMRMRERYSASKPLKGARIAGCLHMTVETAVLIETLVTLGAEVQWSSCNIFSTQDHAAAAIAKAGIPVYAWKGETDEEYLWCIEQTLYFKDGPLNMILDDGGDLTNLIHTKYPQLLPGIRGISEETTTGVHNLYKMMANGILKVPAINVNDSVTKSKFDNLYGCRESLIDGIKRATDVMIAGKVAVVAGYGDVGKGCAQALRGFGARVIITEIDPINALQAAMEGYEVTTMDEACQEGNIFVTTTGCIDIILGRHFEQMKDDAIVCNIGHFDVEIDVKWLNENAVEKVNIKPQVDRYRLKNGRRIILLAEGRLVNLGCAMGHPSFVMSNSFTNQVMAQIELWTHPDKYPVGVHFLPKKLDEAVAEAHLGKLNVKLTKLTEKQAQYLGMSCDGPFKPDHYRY
For assay [2], the target named is T1, Adenosylhomocysteinase. This is another data set of the same source.
Target sequence in this assay (P23526 whole entry): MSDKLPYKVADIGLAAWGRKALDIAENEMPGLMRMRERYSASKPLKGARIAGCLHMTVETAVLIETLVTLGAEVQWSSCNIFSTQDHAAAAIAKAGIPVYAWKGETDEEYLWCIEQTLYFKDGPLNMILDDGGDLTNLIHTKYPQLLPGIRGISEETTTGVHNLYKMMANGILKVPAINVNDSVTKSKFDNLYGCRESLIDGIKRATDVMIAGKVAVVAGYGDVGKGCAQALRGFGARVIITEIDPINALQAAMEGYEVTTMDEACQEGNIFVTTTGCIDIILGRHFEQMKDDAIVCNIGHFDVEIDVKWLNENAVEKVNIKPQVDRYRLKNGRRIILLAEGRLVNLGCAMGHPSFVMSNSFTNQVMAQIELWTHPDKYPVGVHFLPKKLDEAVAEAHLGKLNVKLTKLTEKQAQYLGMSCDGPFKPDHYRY
Assay [3] has as its system Vaccinia virus.
Assay [4] deals with E6SM. The assay is described as follows: Minimum inhibitory concentration required to effect a microscopically visible change of cell morphology in human embryonic skin-muscle (E6SM) cell culture. The class given is functional. Further details: unit not given here.
The test system of assay [5] is Human alphaherpesvirus 1. In words: microbe, parasite or virus in culture.
The test system of assay [6] is Human alphaherpesvirus 1. In words: microbe, parasite or virus in culture. The source holds these as a separate data set.
In assay [7] the test system is Vero. In words: cells. Particulars: Chlorocebus sabaeus.
In assay [8] the test system is Vero. In words: cells. Particulars: Chlorocebus sabaeus. This is another data set of the same source.
Assay [9] has as its system Vero. In words: cells. The note with it: Chlorocebus sabaeus. The source holds these as a separate data set.
Assay [10] concerns Human betaherpesvirus 5. In words: microbe, parasite or virus in culture.
For assay [11], the system named is Human betaherpesvirus 5. The assay is described as follows: microbe, parasite or virus in culture. The source holds these as a separate data set.
In assay [12] the test system is FM3A. The assay is described as follows: cells. The note with it: Mus musculus.
Assay [13] relates to Vero. In words: cells. The note with it: Chlorocebus sabaeus. The source holds these as a separate data set.
Assay [14] deals with Vero. In words: cells. Particulars: Chlorocebus sabaeus. This is another data set of the same source.
The subject of assay [15] is HEL. The assay is described as follows: 50% Cytostatic concentration required to inhibit human erythroleukemic (HEL) cell proliferation. The class given is functional. More on the design: unit not given here.
Assay [16] deals with MOLT-4. In words: cells. Particulars: Homo sapiens.
Assay [17] relates to CCRF-CEM. The assay is described as follows: cells. The note with it: Homo sapiens.
For assay [18], the system named is Human alphaherpesvirus 1. In words: microbe, parasite or virus in culture. This is another data set of the same source.
In assay [19] the test system is L1210. In words: cells. The note with it: Mus musculus.
Assay [20] concerns Human alphaherpesvirus 2. The assay is described as follows: microbe, parasite or virus in culture.
Assay [21] has as its system Human alphaherpesvirus 1. In words: microbe, parasite or virus in culture. This is another data set of the same source.
Assay [22] concerns Human alphaherpesvirus 1. The assay is described as follows: microbe, parasite or virus in culture. The source holds these as a separate data set.
In assay [23] the test system is MDCK. In words: cells. The note with it: Canis lupus familiaris.
For assay [24], the system named is MDCK. The assay is classed as functional, Canis lupus familiaris. Further details: unit not given here.
The test system of assay [25] is HeLa. The assay is described as follows: cells. Particulars: Homo sapiens.
For assay [26], the system named is HeLa. In words: Minimum inhibitory concentration required to effect a microscopically visible change of cell morphology in HeLa cell culture. Further details: unit not given here. The assay is classed as functional, Homo sapiens.
Assay [27] deals with HeLa. In words: cells. Particulars: Homo sapiens. This is another data set of the same source.
The subject of assay [28] is Respiratory syncytial virus. The assay is described as follows: microbe, parasite or virus in culture. Particulars: human respiratory syncytial virus, HeLa.
In assay [29] the test system is Vero. In words: cells. Particulars: Chlorocebus sabaeus. The source holds these as a separate data set.
The subject of assay [30] is MDCK. In words: cells. The note with it: Canis lupus familiaris. This is another data set of the same source.
The test system of assay [31] is Vero. The assay is described as follows: Minimum inhibitory concentration required to effect a microscopically visible change of cell morphology in Vero cell culture. The assay is classed as functional, Chlorocebus sabaeus. More on the design: unit not given here.

On to `Nc1ncnc2c1ncn2[C@@H]1O[C@@H](C=NO)[C@@H](O)[C@H]1O`, for which the k2 in assay [1] was 0.13 min⁻¹. In assay [2], this compound registered a Ki of 0.224 µM.

`Nc1ncnc2c1ncn2[C@@H]1O[C@@H](C=O)[C@@H](O)[C@H]1O` showed a k2 in assay [1] of 0.22 min⁻¹. This compound also had a Ki in assay [2] of 0.043 µM.

For the compound `Nc1ncnc2c1ncn2C1OC(C=O)CC1O` (stereo not drawn), the EC50 was greater than 400 µg/mL in assay [3]; greater than 100 µg/mL in [5]; greater than 400 µg/mL in [6]; greater than 400 µg/mL in assay [7]; greater than 200 µg/mL in assay [8]; greater than 200 µg/mL in assay [9]. For the same compound, the EC50 in [10] is greater than 40 µg/mL; in assay [11] it was greater than 40 µg/mL; in [13], greater than 200 µg/mL; in assay [14] it was greater than 400 µg/mL; in assay [18] it was greater than 400 µg/mL; in [20] it was greater than 400 µg/mL. Besides, the MIC in assay [4] is greater than 400. Further, the IC50 in assay [12], in [16], in assay [17] and in [19] was greater than 200 µg/mL in each case. For the same compound, the CC50 in assay [15] is recorded as greater than 50.

Regarding `Nc1ncnc2c1ncn2[C@@H]1O[C@H](C=O)[C@@H](O)[C@H]1O`, the EC50 in [3] is 70 µg/mL (≈ 264 µM); in assay [5], greater than 400 µg/mL; in assay [6] it was greater than 400 µg/mL; in [7] it was 300 µg/mL (≈ 1130 µM); in assay [8], greater than 200 µg/mL; in assay [9], greater than 200 µg/mL. Besides, the EC50 in assay [10] was greater than 40 µg/mL; in assay [11] it was greater than 40 µg/mL; in assay [13] it was greater than 200 µg/mL; in [14], greater than 200 µg/mL; in assay [18] it was greater than 400 µg/mL; in assay [20], greater than 400 µg/mL. In assay [4], this compound came in with an MIC greater than 400. Besides, the IC50 in [12] is 15 µg/mL (≈ 56.6 µM); in [16], 41.5 µg/mL (≈ 156 µM); in assay [17], 7.3 µg/mL (≈ 27.5 µM); in assay [19] it was 9.71 µg/mL (≈ 36.6 µM). For the same compound, the CC50 in assay [15] is recorded as greater than 50.

With `Nc1ccnc2c1ncn2[C@@H]1O[C@H](CO)[C@@H](O)[C@H]1O`, the EC50 in assay [3] was 0.7 µg/mL (≈ 2.63 µM); in assay [5] it was greater than 400 µg/mL; in assay [6], 40 µg/mL (≈ 150 µM); in assay [7], 0.7 µg/mL (≈ 2.63 µM); in assay [8] it was 4 µg/mL (≈ 15 µM); in [9] it was 4 µg/mL (≈ 15 µM). Besides, the EC50 was greater than 400 µg/mL in assay [13], 0.2 µg/mL (≈ 0.751 µM) in assay [14], greater than 400 µg/mL in assay [18] and greater than 400 µg/mL in assay [20]. For the same compound, the MIC in [4] is on record as greater than 400.

For the compound `Nc1ncnc2c1ncn2C1O[C@H](C(O)O)[C@@H](O)[C@@H]1O` (stereo partly drawn), the EC50 in assay [3] was 20 µg/mL (≈ 70.6 µM); in assay [21], greater than 400 µg/mL; in [7], greater than 400 µg/mL; in assay [8] it was greater than 200 µg/mL; in assay [22], greater than 400 µg/mL; in assay [9] it was 300 µg/mL (≈ 1060 µM). For the same compound, the EC50 in assay [10] was greater than 40 µg/mL; in [11], greater than 40 µg/mL; in assay [13] it was greater than 200 µg/mL; in [14], 150 µg/mL (≈ 530 µM); in [18], 300 µg/mL (≈ 1060 µM); in [20], greater than 400 µg/mL. Moreover, the MIC in [4] is given as greater than 400. In addition, the IC50 in assay [12] was 125 µg/mL (≈ 441 µM); in assay [16], greater than 200 µg/mL; in assay [17], 118 µg/mL (≈ 417 µM); in [19], 156 µg/mL (≈ 551 µM). The same compound showed a CC50 in [15] greater than 50.

In the case of `Nc1ncnc2c1ncn2C1CC(O)C(C=O)O1` (stereo not drawn), the EC50 in assay [3] is greater than 400 µg/mL; in assay [5], greater than 400 µg/mL; in assay [6], greater than 400 µg/mL; in [7], greater than 400 µg/mL; in assay [8] it was greater than 200 µg/mL; in assay [9] it was greater than 200 µg/mL. Moreover, the EC50 in assay [10] was greater than 40 µg/mL; in [11], greater than 40 µg/mL; in assay [13] it was greater than 200 µg/mL; in assay [14], 70 µg/mL (≈ 281 µM); in [18] it was greater than 400 µg/mL; in [20], greater than 400 µg/mL. The MIC in assay [4] is greater than 400. Moreover, the IC50 amounted to 50.9 µg/mL (≈ 204 µM) in [12], 4.96 µg/mL (≈ 19.9 µM) in [16], 17.8 µg/mL (≈ 71.4 µM) in assay [17] and 6.64 µg/mL (≈ 26.6 µM) in [19]. Besides, the CC50 in assay [15] was greater than 50.

Regarding `Nc1ncnc2c1ncn2C1CC(O)C(/C=N/O)O1` (stereo not drawn), the EC50 in assay [3], in assay [5], in [6], in [7], in [8] and in assay [9] was greater than 100 µg/mL throughout. Moreover, the EC50 in assay [10] was 1 µg/mL (≈ 3.78 µM); in assay [11] it was 0.6 µg/mL (≈ 2.27 µM); in [13] it was greater than 100 µg/mL; in [14], greater than 100 µg/mL; in [18], greater than 100 µg/mL; in assay [20], greater than 100 µg/mL. The compound further gave an MIC in assay [4] of 200. Also, the IC50 in [12] turned out to be 11.2 µg/mL (≈ 42.4 µM); in assay [16] it was 17 µg/mL (≈ 64.3 µM); in assay [17], 13.8 µg/mL (≈ 52.2 µM); in assay [19], 4.6 µg/mL (≈ 17.4 µM). In [15], this compound had a CC50 of 14.

Regarding `Nc1ncnc2c1ncn2C1O[C@H](/C=N/OCc2ccccc2)[C@@H](O)[C@H]1O` (stereo partly drawn), the EC50 in assay [3] is 2 µg/mL (≈ 5.4 µM); in assay [23], 20 µg/mL (≈ 54 µM); in assay [5], greater than 40 µg/mL; in [6] it was greater than 40 µg/mL; in assay [7], greater than 40 µg/mL; in assay [8], greater than 100 µg/mL. For the same compound, the EC50 in assay [9] was greater than 100 µg/mL; in assay [10], greater than 10 µg/mL; in assay [11], greater than 10 µg/mL; in assay [25] it was greater than 200 µg/mL; in assay [13], greater than 100 µg/mL; in assay [14] it was greater than 100 µg/mL. Besides, the EC50 in [27] is greater than 200 µg/mL; in [28], greater than 200 µg/mL; in assay [18], greater than 40 µg/mL; in [29], greater than 100 µg/mL; in assay [30], 20 µg/mL (≈ 54 µM); in assay [20] it was greater than 40 µg/mL. The MIC in assay [4] is recorded as 100; in assay [24], 100; in assay [26], greater than 200; in assay [31] it was greater than 200. In addition, the IC50 turned out to be 340 µg/mL (≈ 918 µM) in assay [12], 118 µg/mL (≈ 319 µM) in [16], 136 µg/mL (≈ 367 µM) in assay [17] and 187 µg/mL (≈ 505 µM) in [19]. In assay [15], the CC50 amounted to 33. In [1], this compound yielded a k2 of 0.036 min⁻¹. In [2], this compound registered a Ki of 0.101 µM.

`Nc1ncnc2c1ncn2C[C@H](O)CO` [(S)-DHPA]: the EC50 in assay [3] is 20 µg/mL (≈ 95.6 µM); in [5], greater than 400 µg/mL; in assay [6] it was greater than 40 µg/mL; in assay [7], 20 µg/mL (≈ 95.6 µM); in [8], greater than 400 µg/mL; in [9], 70 µg/mL (≈ 335 µM). Besides, the EC50 in assay [13] is greater than 400 µg/mL; in assay [14], 70 µg/mL (≈ 335 µM); in [18], greater than 400 µg/mL; in assay [20], greater than 400 µg/mL. The same compound returned an MIC in assay [4] greater than 400.

For the compound `Nc1ncnc2c1ncn2C1OC(/C=N/O)CC1O` (stereo not drawn), the EC50 in [3] was 300 µg/mL (≈ 1140 µM); in assay [5], greater than 400 µg/mL; in assay [6] it was greater than 400 µg/mL; in assay [7], greater than 400 µg/mL; in assay [8], greater than 400 µg/mL; in assay [9], 300 µg/mL (≈ 1140 µM). The EC50 is 40 µg/mL (≈ 151 µM) in [10]; 10 µg/mL (≈ 37.8 µM) in assay [11]; greater than 400 µg/mL in assay [13]; greater than 400 µg/mL in assay [14]; greater than 400 µg/mL in assay [18]; greater than 400 µg/mL in assay [20]. Further, the MIC in assay [4] was greater than 400. Besides, the IC50 in assay [12] is greater than 200 µg/mL; in [16], greater than 200 µg/mL; in [17] it was 185 µg/mL (≈ 700 µM); in assay [19] it was 180 µg/mL (≈ 681 µM). Moreover, the CC50 in [15] is recorded as greater than 50.

Values taken from ChEMBL document CHEMBL1130322, “Anticancer and antiviral effects and inactivation of S-adenosyl-L-homocysteine hydrolase with 5'-carboxaldehydes and oximes synthesized from adenosine and sugar-modified analogues” (J Med Chem, 1997).
